# Laboratory results reported in patent US10479780B2, “Aminopyrazole derivatives” (Chugai Seiyaku Kabushiki Kaisha, priority 2015, dated 2019).
# Where two headings read alike, the source gives them in different places.
# Assays:
# Type in all cases: biochemical
# [1] = molecular target: T1, human Src enzyme (Homo sapiens, UniProt P12931); test: Src enzyme inhibitory activity (time-resolved fluorometry, biotinylated peptide phosphorylation); conditions: read-out: SRC_IC50
# T1 construct: purchased Carna Biosciences, Inc. 08-173
# Method in brief: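 Compounds were tested for blocking tyrosine phosphorylation of a biotinylated peptide substrate by recombinant human Src. Phosphorylated product was quantified by time-resolved fluorometry using europium cryptate and XL665 conjugates, and IC50 was calculated against the compound-free control.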
# [2] = molecular target: T2, human Yes1 enzyme (Homo sapiens, UniProt P07947); test: Yes1 enzyme inhibitory activity (time-resolved fluorometry, biotinylated peptide phosphorylation); conditions: read-out: YES_IC50
# T2 construct: made in house
# Method in brief: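 Inhibition was expressed against a compound-free control to give IC50, using TR-FRET read-out (Eu-cryptate anti-pTyr antibody, streptavidin-XL665).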
# [3] = molecular target: T3, human Lck enzyme (Homo sapiens, UniProt P06239); test: Lck enzyme inhibitory activity (time-resolved fluorometry, biotinylated peptide phosphorylation); conditions: read-out: LCK_IC50
# T3 construct: purchased Carna Biosciences, Inc. 08-170
# Method in brief: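 Readout pairs a europium cryptate-labelled anti-phosphotyrosine antibody with XL665-streptavidin, measured by time-resolved fluorescence. IC50 derived from percent inhibition against untreated controls.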
# [4] = biotinylated peptide phosphorylation
# T1 sequence (P12931 whole entry): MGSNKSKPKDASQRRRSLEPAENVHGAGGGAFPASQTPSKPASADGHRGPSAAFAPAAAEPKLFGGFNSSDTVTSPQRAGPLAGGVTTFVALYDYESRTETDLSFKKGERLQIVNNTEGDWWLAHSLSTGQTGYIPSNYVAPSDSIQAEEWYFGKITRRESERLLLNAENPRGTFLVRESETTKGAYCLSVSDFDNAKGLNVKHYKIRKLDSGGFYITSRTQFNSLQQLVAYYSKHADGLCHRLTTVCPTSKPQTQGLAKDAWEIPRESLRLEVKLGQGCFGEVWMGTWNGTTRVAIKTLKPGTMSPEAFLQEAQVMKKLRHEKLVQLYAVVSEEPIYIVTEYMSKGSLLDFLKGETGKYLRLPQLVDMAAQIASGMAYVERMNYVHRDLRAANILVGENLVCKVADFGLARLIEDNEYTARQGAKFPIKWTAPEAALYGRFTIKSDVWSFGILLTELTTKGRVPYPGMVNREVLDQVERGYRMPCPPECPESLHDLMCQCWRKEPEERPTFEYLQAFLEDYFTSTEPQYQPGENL
# T2 sequence (P07947 whole entry): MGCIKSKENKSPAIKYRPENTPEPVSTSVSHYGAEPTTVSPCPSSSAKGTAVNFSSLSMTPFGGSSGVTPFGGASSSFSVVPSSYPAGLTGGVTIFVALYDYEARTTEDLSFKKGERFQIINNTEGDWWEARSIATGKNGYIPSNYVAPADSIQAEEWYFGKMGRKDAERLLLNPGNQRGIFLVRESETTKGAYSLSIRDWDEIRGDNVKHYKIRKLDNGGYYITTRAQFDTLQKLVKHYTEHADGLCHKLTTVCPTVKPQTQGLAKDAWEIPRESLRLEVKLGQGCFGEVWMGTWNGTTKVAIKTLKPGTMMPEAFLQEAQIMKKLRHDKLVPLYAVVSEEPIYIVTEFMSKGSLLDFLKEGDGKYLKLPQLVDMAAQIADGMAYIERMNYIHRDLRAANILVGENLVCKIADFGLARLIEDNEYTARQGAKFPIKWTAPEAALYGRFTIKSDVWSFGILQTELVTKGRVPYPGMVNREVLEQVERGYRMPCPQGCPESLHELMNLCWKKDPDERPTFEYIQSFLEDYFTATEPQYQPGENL
# T3 sequence (P06239 whole entry): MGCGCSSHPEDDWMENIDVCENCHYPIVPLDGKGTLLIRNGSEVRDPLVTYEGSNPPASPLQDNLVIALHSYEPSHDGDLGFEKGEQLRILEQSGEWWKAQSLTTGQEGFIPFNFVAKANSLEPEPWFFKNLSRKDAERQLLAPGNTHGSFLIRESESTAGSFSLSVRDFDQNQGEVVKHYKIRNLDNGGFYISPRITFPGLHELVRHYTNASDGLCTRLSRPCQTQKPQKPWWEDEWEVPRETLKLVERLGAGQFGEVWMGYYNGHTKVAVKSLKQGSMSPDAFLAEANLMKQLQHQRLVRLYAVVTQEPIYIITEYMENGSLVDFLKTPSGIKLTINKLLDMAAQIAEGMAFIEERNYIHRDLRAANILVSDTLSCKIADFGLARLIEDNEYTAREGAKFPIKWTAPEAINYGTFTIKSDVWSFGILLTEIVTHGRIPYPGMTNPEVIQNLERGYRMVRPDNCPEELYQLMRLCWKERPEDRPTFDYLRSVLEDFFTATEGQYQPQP
Structure (SMILES),IC50 [1] [µM],IC50 [2] [µM],IC50 [3] [µM],"IC50 [1, 4] [µM]","IC50 [2, 4] [µM]","IC50 [3, 4] [µM]"
"Cc1cc(-n2ncc(C(=O)c3cc4cc(OCC(F)F)c(-c5cncnc5)cc4[nH]3)c2N)ccc1Oc1ccccc1F [Example 5-1-261, [5-amino-1-[4-(2-fluorophenoxy)-3-methylphenyl]pyrazol-4-yl]-[5-(2,2-difluoroethoxy)-6-pyrimidin-5-yl-1H-indol-2-yl]methanone]",0.39,0.0079,0.2,,,
"Cc1cc2cc(C(=O)c3cnn(-c4c(C)cc(Oc5ccccc5F)cc4F)c3N)[nH]c2cc1NS(C)(=O)=O [Example 4-2-055, N-[2-[5-amino-1-[2-fluoro-4-(2-fluorophenoxy)-6-methylphenyl]pyrazole-4-carbonyl]-5-methyl-1H-indol-6-yl]methanesulfonamide]",,,,0.065,0.003,0.026
"Cc1cc(Oc2ccccc2F)ncc1-n1ncc(C(=O)c2cc3cc(F)c(NS(=O)(=O)NC(C)C)cc3[nH]2)c1N [Example 5-1-021, [5-amino-1-[6-(2-fluorophenoxy)-4-methylpyridin-3-yl]pyrazol-4-yl]-[5-fluoro-6-(propan-2-ylsulfamoylamino)-1H-indol-2-yl] methanone]",0.31,0.0098,0.072,,,
"Cc1cc(Oc2ccccc2F)ccc1-n1ncc(C(=O)c2cc3cc(F)c(NS(=O)(=O)C4CCOCC4)cc3[nH]2)c1N [Example 5-1-389, N-[2-[5-amino-1-[4-(2-fluorophenoxy)-2-methylphenyl]pyrazole-4-carbonyl]-5-fluoro-1H-indol-6-yl]oxane-4-sulfonamide]",0.024,0.0014,0.018,,,
"Cc1cc2cc(C(=O)c3cnn(-c4c(C)cc(Oc5ccccc5F)cc4F)c3N)[nH]c2cc1NS(=O)(=O)CC(=O)N1CCCC1 [Example 5-1-110, N-[2-[5-amino-1-[2-fluoro-4-(2-fluorophenoxy)-6-methylphenyl]pyrazole-4-carbonyl]-5-methyl-1H-indol-6-yl]-2-oxo-2-pyrrolidin-1-ylethanesulfonamide]",0.068,0.0077,0.01,,,
"Cc1cc(Oc2ccccc2F)ccc1-n1ncc(C(=O)c2cc3cc(OCC(F)F)c(N4C(=O)[C@@H]5C[C@H](NS(=O)(=O)CCCF)CN5C4=O)cc3[nH]2)c1N [Example 5-1-255, N-[(6S,7aS)-2-[2-[5-amino-1-[4-(2-fluorophenoxy)-2-methylphenyl]pyrazole-4-carbonyl]-5-(2,2-difluoroethoxy)-1H-indol-6-yl]-1,3-dioxo-5,6,7,7a-tetrahydropyrrolo[1,2-c]imidazol-6-yl]-3-fluoropropane-1-sulfonamide]",0.0089,0.0011,0.0045,,,
"Cc1cc(Oc2cccc(F)c2)ccc1-n1ncc(C(=O)c2cc3cc(C4CCN(C(C)C)CC4)c(F)cc3[nH]2)c1N [Example 5-1-005, [5-amino-1-[4-(3-fluorophenoxy)-2-methylphenyl]pyrazol-4-yl]-[6-fluoro-5-(1-propan-2-ylpiperidin-4-yl)-1H-indol-2-yl] methanone]",0.037,0.00071,0.0042,,,
"Cc1cc(-n2ncc(C(=O)c3cc4cc(OCC(F)F)c(N5CCOCC5)cc4[nH]3)c2N)ccc1Oc1ccccc1F [Example 5-1-169, [5-amino-1-[4-(2-fluorophenoxy)-3-methylphenyl]pyrazol-4-yl]-[5-(2,2-difluoroethoxy)-6-morpholin-4-yl-1H-indol-2-yl] methanone]",0.1,0.00088,0.046,,,
"Cc1cc(Oc2ccccc2F)ncc1-n1ncc(C(=O)c2cc3cc(OCC(F)F)c(N4CCOCC4)cc3[nH]2)c1N [Example 4-25-020, {5-amino-1-[6-(2-fluorophenoxy)-4-methylpyridin-3-yl]pyrazol-4-yl}-[5-(2,2-difluoroethoxy)-6-morpholin-4-yl-1H-indol-2-yl]methanone]",,,,0.013,0.0012,0.0023
